Legend:
Details in all cases: 72 h
Caco-2 [1] = assay: cell viability relative to DMSO; higher = less toxic
HepG2 [2] = assay: as above
U2OS [3] = assay: as above
Vero E6 [4] = assay: as above
Caco-2 [5] = assay: relative viability EC50 (midpoint between 100% and the lowest measured viability); higher = less toxic
HepG2 [6] = assay: as above
U2OS [7] = assay: as above
Vero E6 [8] = assay: as above
Caco-2 [9] = assay: drug sensitivity score (DSS) for viability; higher = more toxic; extreme values may be limits of the assay
HepG2 [10] = assay: as above
U2OS [11] = assay: as above
Vero E6 [12] = assay: as above
Calu-3 [13] = assay: cell viability relative to DMSO; higher = less toxic
Calu-3 [14] = assay: relative viability EC50 (midpoint between 100% and the lowest measured viability); higher = less toxic
Calu-3 [15] = assay: drug sensitivity score (DSS) for viability; higher = more toxic; extreme values may be limits of the assay

| SMILES | cell viability (Caco-2 [1]; 1 nM) | cell viability (Caco-2 [1]; 10 nM) | cell viability (Caco-2 [1]; 100 nM) | cell viability (Caco-2 [1]; 1000 nM) | cell viability (Caco-2 [1]; 10000 nM) | cell viability (HepG2 [2]; 1 nM) | cell viability (HepG2 [2]; 10 nM) | cell viability (HepG2 [2]; 100 nM) | cell viability (HepG2 [2]; 1000 nM) | cell viability (HepG2 [2]; 10000 nM) | cell viability (U2OS [3]; 1 nM) | cell viability (U2OS [3]; 10 nM) | cell viability (U2OS [3]; 100 nM) | cell viability (U2OS [3]; 1000 nM) | cell viability (U2OS [3]; 10000 nM) | cell viability (Vero E6 [4]; 1 nM) | cell viability (Vero E6 [4]; 10 nM) | cell viability (Vero E6 [4]; 100 nM) | cell viability (Vero E6 [4]; 1000 nM) | cell viability (Vero E6 [4]; 10000 nM) | relative viability EC50 (Caco-2 [5]) | relative viability EC50 (HepG2 [6]) | relative viability EC50 (U2OS [7]) | relative viability EC50 (Vero E6 [8]) | drug sensitivity score (Caco-2 [9]) | drug sensitivity score (HepG2 [10]) | drug sensitivity score (U2OS [11]) | drug sensitivity score (Vero E6 [12]) | cell viability (Calu-3 [13]; 1 nM) | cell viability (Calu-3 [13]; 10 nM) | cell viability (Calu-3 [13]; 100 nM) | cell viability (Calu-3 [13]; 1000 nM) | cell viability (Calu-3 [13]; 10000 nM) | relative viability EC50 (Calu-3 [14]) | drug sensitivity score (Calu-3 [15]) |
| --- | --- | --- | --- | --- | --- | --- | --- | --- | --- | --- | --- | --- | --- | --- | --- | --- | --- | --- | --- | --- | --- | --- | --- | --- | --- | --- | --- | --- | --- | --- | --- | --- | --- | --- | --- |
| Cn1c(COP(=O)(NCCBr)NCCBr)cnc1[N+](=O)[O-] [TH-302] | 107% | 94.5% | 98.6% | 97.7% | 89% | 97.6% | 97% | 118% | 103% | 81.3% | 103% | 105% | 99.9% | 105% | 108% | 101% | 100% | 98.8% | 93.1% | 97.5% | > 10 µM | > 10 µM | > 10 µM | > 10 µM | 0 | 0.4 | 0 | 0 |  |  |  |  |  |  |  |
| Nc1nccc(Oc2ccc(NC(=O)c3cn(COP(=O)(O)O)cc(-c4ccc(F)cc4)c3=O)cc2F)c1Cl | 97.2% | 96.8% | 94% | 94.5% | 90.2% | 104% | 102% | 108% | 99.8% | 35% | 97.9% | 103% | 98.7% | 104% | 106% | 106% | 103% | 105% | 97.5% | 102% | > 10 µM | 3.15 µM | > 10 µM | > 10 µM | 0 | 3.6 | 0 | 0 |  |  |  |  |  |  |  |
| O=C(CCCN1CCC(O)(c2ccc(Cl)cc2)CC1)c1ccc(F)cc1 [haloperidol] | 110% | 104% | 97.1% | 100% | 103% |  |  |  |  |  | 102% | 104% | 97.6% | 103% | 99.1% | 101% | 97.3% | 95.1% | 98.9% | 94.1% | > 10 µM |  | > 10 µM | > 10 µM | 0 |  | 0 | 0 | 99.5% | 97.9% | 92.6% | 104% | 114% | > 10 µM | 0 |
| CCOC(=O)O[C@]1(C(=O)OCCl)CC[C@H]2[C@@H]3CCC4=CC(=O)C=C[C@]4(C)[C@H]3[C@@H](O)C[C@@]21C [loteprednol] | 112% | 104% | 99.1% | 92.1% | 77.9% |  |  |  |  |  | 105% | 102% | 100% | 93.4% | 98.1% | 102% | 100% | 102% | 99.2% | 96% | > 10 µM |  | > 10 µM | > 10 µM | 1.6 |  | 0 | 0 | 98.8% | 100% | 103% | 87.7% | 95.2% | > 10 µM | 0.6 |
| CC1=C(C(=O)OC(C)C)C(c2cccc([N+](=O)[O-])c2)C(C(=O)OC2CN(C(c3ccccc3)c3ccccc3)C2)=C(N)N1 (configuration not stated) [azelnidipine] | 89% | 94.8% | 100% | 87.1% | 87.6% |  |  |  |  |  | 101% | 97.5% | 98.3% | 98.1% | 90.4% | 91.4% | 97.5% | 92.1% | 96.2% | 88.1% | > 10 µM |  | > 10 µM | > 10 µM | 0 |  | 0 | 0 | 92.8% | 106% | 101% | 96.8% | 109% | > 10 µM | 0 |
| C[C@]1(O)C[C@@H](c2nc(-c3ccc4ccc(-c5ccccc5)nc4c3)c3c(N)nccn32)C1 [linsitinib] | 96.6% | 98.9% | 84.7% | 75.7% | 47.2% | 90.5% | 87% | 95.2% | 62% | 54.8% | 101% | 103% | 92.7% | 82.4% | 67.9% | 99.9% | 98.9% | 104% | 96.5% | 109% | 0.674 µM |  |  | > 10 µM | 6.3 | 7.5 | 3.3 | 0 | 97.7% | 104% | 101% | 116% | 104% | > 10 µM | 0 |
| COc1ccnc2[nH]cc(C(=O)C(=O)N3CCN(C(=O)c4ccccc4)C[C@H]3C)c12 [BMS-806] | 99.3% | 99% | 96.1% | 108% | 107% |  |  |  |  |  | 93.3% | 104% | 95.1% | 105% | 100% | 107% | 102% | 102% | 105% | 99.9% | > 10 µM |  | > 10 µM | > 10 µM | 0 |  | 0 | 0 | 105% | 108% | 107% | 110% | 99.3% | > 10 µM | 0 |
| CC(=O)NNC(=O)N1Cc2ccccc2Oc2ccc(Cl)cc21 | 105% | 100% | 107% | 95.5% | 99.7% | 98.5% | 102% | 96.1% | 94% | 87.7% | 98.5% | 95.9% | 101% | 99.9% | 102% |  |  |  |  |  | > 10 µM | > 10 µM | > 10 µM |  | 0 | 0.1 | 0 |  |  |  |  |  |  |  |  |

— the supplement of paper PMC13380429
